Measurements as given in patent US10280166B2, “2-(1H-indazol-3-yl)-3H-imidazo[4,5-B]pyridine and therapeutic uses thereof” (Samumed, LLC, priority 2014, dated 2019).

Tested on: Wnt activity (SW480 colon carcinoma cells stably expressing the Sp5-Luc reporter gene)
Assay: Sp5-Luc reporter gene screening assay for Wnt activity in SW480 cells
Type: cell-based
Conditions: Homo sapiens, 42 h incubation, luminescence
Excerpt: The screening assay for Wnt activity is described as follows. Reporter cell lines can be generated by stably transducing cancer cell lines (e.g., colon cancer) or primary cells (e.g., IEC-6 intestinal cells) with a lentiviral construct that includes a Wnt-responsive promoter driving expression of the firefly luciferase gene.
SW480 colon carcinoma cells were transduced with a lentiviral vector expressing luciferase with a human Sp5 promoter consisting of a sequence of eight TCF/LEF binding sites. SW480 cells stably expressing the Sp5-Luc reporter gene and a hygromycin resistance gene were selected by treatment with 150 μg/ml of hygromycin for 7 days. These stably transduced SW480 cells were expanded in cell culture and used for all further screening activities. For Sp5-Luc reporter gene assays, the cells were plated at 10,000 cells/well in 96-well plates with growth medium containing 10% fetal calf serum and incubated overnight at 37° C. and 5% CO2. Each compound was dissolved in DMSO as a 10 mM stock in standard j-vials and used to prepare compound source plates in dose-response format with 3-fold serial dilutions and a 10 mM top concentration. Compound transfer from serially diluted source plates to assay plates containing the cells was accomplished using a pintool (Multimek 96, Beckman equipped with V&P Scientific FP1S50H pins) based liquid handling protocol. This protocol used a slotted pin to transfer 50 nl of compound from a source plate well to an assay plate well containing 50 μl of cells in growth medium. […] Control wells received 50 nl of DMSO treatment for normalization and calculating IC50 values. The treated cells were incubated at 37° C. and 5% CO2 for an additional forty-two hours. Following incubation, the growth medium was removed and 50 μl of BrightGlo luminescence reagent (Promega) was added to each well of the 96-well assay plates. The plates were placed on an orbital shaker for 5 min and then luminescence was quantified on the Victor3 (Perkin Elmer) plate reader. Readings were normalized to DMSO only treated cells, and normalized activities were utilized for IC50 calculations using the dose-response log (inhibitor) vs. response—variable slope (four parameters) nonlinear regression feature available in GraphPad Prism 5.0 or 6.0.

SMILES: COc1cc(F)cc(-c2ccnc3[nH]c(-c4n[nH]c5ccc(-c6cncc(NC(=O)CC(C)C)c6)cc45)nc23)c1 [Compound 2330, N-(5-(3-(7-(3-Fluoro-5-methoxyphenyl)-3H-imidazo[4,5-b]pyridin-2-yl)-1H-indazol-5-yl)pyridin-3-yl)-3-methylbutanamide]
- IC50: 0.02 µM

SMILES: CN(C)Cc1cncc(-c2cc3c(-c4nc5c(-c6cccc(F)c6)ccnc5[nH]4)n[nH]c3cc2F)c1 [Compound 949, 1-(5-(6-Fluoro-3-(7-(3-fluorophenyl)-3H-imidazo[4,5-b]pyridin-2-yl)-1H-indazol-5-yl)pyridin-3-yl)-N,N-dimethylmethanamine]
- IC50: > 10 µM

SMILES: CC(C)C(=O)Nc1cncc(-c2ccc3[nH]nc(-c4nc5c(-c6cccnc6)ccnc5[nH]4)c3c2)c1 [Compound 87, N-(5-(3-(7-(Pyridin-3-yl)-3H-imidazo[4,5-b]pyridin-2-yl)-1H-indazol-5-yl)pyridin-3-yl)isobutyramide]
- IC50: 0.0068 µM

SMILES: CN(C)c1cncc(-c2ccc3[nH]nc(-c4nc5c(-c6cccs6)ccnc5[nH]4)c3c2)c1 [Compound 319, N,N-Dimethyl-5-(3-(7-(thiophen-2-yl)-3H-imidazo[4,5-b]pyridin-2-yl)-1H-indazol-5-yl)pyridin-3-amine]
- IC50: 0.0628 µM

SMILES: CC(C)(C)C(=O)Nc1cncc(-c2ccc3[nH]nc(-c4nc5c(-c6ccsc6)ccnc5[nH]4)c3c2)c1 [Compound 268, N-(5-(3-(7-(Thiophen-3-yl)-3H-imidazo[4,5-b]pyridin-2-yl)-1H-indazol-5-yl)pyridin-3-yl)pivalamide]
- IC50: 0.0065 µM

SMILES: CN(C)Cc1cncc(-c2cc3c(-c4nc5c(-c6ccsc6)ccnc5[nH]4)n[nH]c3cc2F)c1 [Compound 1209, 1-(5-(6-Fluoro-3-(7-(thiophen-3-yl)-3H-imidazo[4,5-b]pyridin-2-yl)-1H-indazol-5-yl)pyridin-3-yl)-N,N-dimethylmethanamine]
- IC50: > 10 µM

SMILES: CN(C)Cc1cncc(-c2ccc3[nH]nc(-c4nc5c(-c6cc(F)cc(CNS(C)(=O)=O)c6)ccnc5[nH]4)c3c2F)c1 [Compound 1833, N-(3-(2-(5-(5-((Dimethylamino)methyl)pyridin-3-yl)-4-fluoro-1H-indazol-3-yl)-3H-imidazo[4,5-b]pyridin-7-yl)-5-fluorobenzyl)methanesulfonamide]
- IC50: 0.773 µM

SMILES: CCCC(=O)Nc1cncc(-c2ccc3[nH]nc(-c4nc5c(-c6ccncc6)ccnc5[nH]4)c3c2)c1 [Compound 121, N-(5-(3-(7-(Pyridin-4-yl)-3H-imidazo[4,5-b]pyridin-2-yl)-1H-indazol-5-yl)pyridin-3-yl)butyramide]
- IC50: 0.035 µM

SMILES: CN1CCN(c2ccnc3[nH]c(-c4n[nH]c5ccc(-c6cncc(N)c6)cc45)nc23)CC1 [Compound 211, 5-(3-(7-(4-Methylpiperazin-1-yl)-3H-imidazo[4,5-b]pyridin-2-yl)-1H-indazol-5-yl)pyridin-3-amine]
- IC50: 0.0663 µM

SMILES: CC(C)CC(=O)Nc1cncc(-c2ccc3[nH]nc(-c4nc5c(-c6ccc(F)cc6)ccnc5[nH]4)c3c2)c1 [Compound 28, N-(5-(3-(7-(4-Fluorophenyl)-3H-imidazo[4,5-b]pyridin-2-yl)-1H-indazol-5-yl)pyridin-3-yl)-3-methylbutanamide]
- IC50: 0.004 µM

SMILES: CS(=O)(=O)NCc1cc(F)cc(-c2ccnc3[nH]c(-c4n[nH]c5ccc(-c6cncc(NC(=O)c7ccccc7)c6)cc45)nc23)c1 [Compound 427, N-(5-(3-(7-(3-Fluoro-5-(methylsulfonamidomethyl)phenyl)-3H-imidazo[4,5-b]pyridin-2-yl)-1H-indazol-5-yl)pyridin-3-yl)benzamide]
- IC50: 0.0192 µM

SMILES: CN(C)Cc1cncc(-c2cc3c(-c4nc5c(-c6cc(F)cc(CNS(C)(=O)=O)c6)ccnc5[nH]4)n[nH]c3cc2F)c1 [Compound 1365, N-(3-(2-(5-(5-((Dimethylamino)methyl)pyridin-3-yl)-6-fluoro-1H-indazol-3-yl)-3H-imidazo[4,5-b]pyridin-7-yl)-5-fluorobenzyl)methanesulfonamide]
- IC50: 0.804 µM

SMILES: O=C(Cc1ccccc1)Nc1cncc(-c2ccc3[nH]nc(-c4nc5cccnc5[nH]4)c3c2)c1 [Compound 244, N-(5-(3-(3H-Imidazo[4,5-b]pyridin-2-yl)-1H-indazol-5-yl)pyridin-3-yl)-2-phenylacetamide]
- IC50: 0.352 µM

SMILES: CN(C)Cc1cncc(-c2ccc3[nH]nc(-c4nc5c(-c6cccc(F)c6)ccnc5[nH]4)c3c2F)c1 [Compound 1417, 1-(5-(4-Fluoro-3-(7-(3-fluorophenyl)-3H-imidazo[4,5-b]pyridin-2-yl)-1H-indazol-5-yl)pyridin-3-yl)-N,N-dimethylmethanamine]
- IC50: 0.923 µM

SMILES: CN(C)Cc1cncc(-c2cc(F)c3[nH]nc(-c4nc5c(-c6cccc(F)c6)ccnc5[nH]4)c3c2)c1 [Compound 481, 1-(5-(7-fluoro-3-(7-(3-fluorophenyl)-3H-imidazo[4,5-b]pyridin-2-yl)-1H-indazol-5-yl)pyridin-3-yl)-N,N-dimethylmethanamine]
- IC50: 0.155 µM

SMILES: Fc1cccc(-c2ccnc3[nH]c(-c4n[nH]c5ccc(-c6cncc(OCc7ccccc7)c6)cc45)nc23)c1 [Compound 1886, 2-(5-(5-(Benzyloxy)pyridin-3-yl)-1H-indazol-3-yl)-7-(3-fluorophenyl)-3H-imidazo[4,5-b]pyridine]
- IC50: > 10 µM

SMILES: O=C(Nc1cncc(-c2ccc3[nH]nc(-c4nc5c(-c6ccncc6)ccnc5[nH]4)c3c2)c1)C1CCCCC1 [Compound 126, N-(5-(3-(7-(Pyridin-4-yl)-3H-imidazo[4,5-b]pyridin-2-yl)-1H-indazol-5-yl)pyridin-3-yl)cyclohexanecarboxamide]
- IC50: 0.0307 µM

SMILES: O=C(Cc1ccccc1)Nc1cncc(-c2ccc3[nH]nc(-c4nc5c(-c6ccncc6)ccnc5[nH]4)c3c2)c1 [Compound 114, 2-Phenyl-N-(5-(3-(7-(pyridin-4-yl)-3H-imidazo[4,5-b]pyridin-2-yl)-1H-indazol-5-yl)pyridin-3-yl)acetamide]
- IC50: 0.054 µM

SMILES: CN(C)Cc1cncc(-c2cc(F)c3[nH]nc(-c4nc5c(-c6cc(F)cc(CNS(C)(=O)=O)c6)ccnc5[nH]4)c3c2)c1 [Compound 897, N-(3-(2-(5-(5-((Dimethylamino)methyl)pyridin-3-yl)-7-fluoro-1H-indazol-3-yl)-3H-imidazo[4,5-b]pyridin-7-yl)-5-fluorobenzyl)methanesulfonamide]
- IC50: 0.074 µM

SMILES: CC(C)CC(=O)Nc1cncc(-c2ccc3[nH]nc(-c4nc5c(-c6cc(F)cc(OCCN(C)C)c6)ccnc5[nH]4)c3c2)c1 [Compound 2198, N-(5-(3-(7-(3-(2-(Dimethylamino)ethoxy)-5-fluorophenyl)-3H-imidazo[4,5-b]pyridin-2-yl)-1H-indazol-5-yl)pyridin-3-yl)-3-methylbutanamide]
- IC50: 0.18 µM

SMILES: CC(C)CC(=O)Nc1cncc(-c2ccc3[nH]nc(-c4nc5c(-c6cc(F)cc(OCCN7CCCC7)c6)ccnc5[nH]4)c3c2)c1 [Compound 2242, N-(5-(3-(7-(3-Fluoro-5-(2-(pyrrolidin-1-yl)ethoxy)phenyl)-3H-imidazo[4,5-b]pyridin-2-yl)-1H-indazol-5-yl)pyridin-3-yl)-3-methylbutanamide]
- IC50: 0.44 µM

SMILES: CS(=O)(=O)NCc1cc(F)cc(-c2ccnc3[nH]c(-c4n[nH]c5ccc(-c6cncnc6)cc45)nc23)c1 [Compound 442, N-(3-Fluoro-5-(2-(5-(pyrimidin-5-yl)-1H-indazol-3-yl)-3H-imidazo[4,5-b]pyridin-7-yl)benzyl)methanesulfonamide]
- IC50: 0.0058 µM

SMILES: CC(C)(C)CC(=O)Nc1cncc(-c2ccc3[nH]nc(-c4nc5c(-c6ccccc6F)ccnc5[nH]4)c3c2)c1 [Compound 68, N-(5-(3-(7-(2-Fluorophenyl)-3H-imidazo[4,5-b]pyridin-2-yl)-1H-indazol-5-yl)pyridin-3-yl)-3,3-dimethylbutanamide]
- IC50: 0.052 µM

SMILES: CC(C)C(=O)Nc1cncc(-c2ccc3[nH]nc(-c4nc5c(-c6cccs6)ccnc5[nH]4)c3c2)c1 [Compound 321, N-(5-(3-(7-(Thiophen-2-yl)-3H-imidazo[4,5-b]pyridin-2-yl)-1H-indazol-5-yl)pyridin-3-yl)isobutyramide]
- IC50: 0.0411 µM

SMILES: O=C(Nc1cncc(-c2ccc3[nH]nc(-c4nc5c(-c6ccc(F)s6)ccnc5[nH]4)c3c2)c1)C1CCC1 [Compound 358, N-(5-(3-(7-(5-Fluorothiophen-2-yl)-3H-imidazo[4,5-b]pyridin-2-yl)-1H-indazol-5-yl)pyridin-3-yl)cyclobutanecarboxamide]
- IC50: 0.0069 µM

SMILES: CN(C)Cc1cncc(-c2ccc3[nH]nc(-c4nc5c(-c6ccsc6)ccnc5[nH]4)c3c2F)c1 [Compound 1677, 1-(5-(4-Fluoro-3-(7-(thiophen-3-yl)-3H-imidazo[4,5-b]pyridin-2-yl)-1H-indazol-5-yl)pyridin-3-yl)-N,N-dimethylmethanamine]
- IC50: 0.673 µM

SMILES: CC(C)CC(=O)Nc1cncc(-c2ccc3[nH]nc(-c4nc5c(-c6cc(O)cc(F)c6)ccnc5[nH]4)c3c2)c1 [Compound 2286, N-(5-(3-(7-(3-Fluoro-5-hydroxyphenyl)-3H-imidazo[4,5-b]pyridin-2-yl)-1H-indazol-5-yl)pyridin-3-yl)-3-methylbutanamide]
- IC50: 0.055 µM
